Source: paper PMC8351955, “Targeting Mycobacterium tuberculosis response to environmental cues for the development of effective antitubercular drugs” (PLoS Biology, 2021)
Where two headings read alike, the source gives them in different places.

Key:
[1] = test system: CDC1551(rv2390c′::GFP) reporter Mtb strain, response to high [Cl−]; assay: microbe, parasite or virus in culture; assay type: cell-based, Mycobacterium tuberculosis; details: Mycobacterium tuberculosis, 144 h; for activity at 20 µM: read-out: rv2390c'::GFP validation assay NPA% at 20 µM compound
[2] = test system: CDC1551(rv1405c′::GFP) reporter Mtb strain; assay: microbe, parasite or virus in culture; assay type: cell-based, Mycobacterium tuberculosis; details: Mycobacterium tuberculosis; for activity at 10 µM: read-out: rv1405c'::GFP secondary assay NPA% at 10 µM compound; for activity at 20 µM: read-out: rv1405c'::GFP secondary assay NPA% at 20 µM compound
[3] = pH 6.4, […], DMSO positive control = 100%, read-out: Primary screen rv2390c'::GFP NPA%
[4] = 10 µM, pH 6.4, 250 mM NaCl, 6 days, read-out: rv2390c'::GFP validation assay NPA% at 10 µM compound

| SMILES | activity at 10 µM [1, 3] | activity at 10 µM [1, 4] | activity at 20 µM ([1]; pH 6.4, 250 mM NaCl, 6 days) | activity at 10 µM [2] | activity at 20 µM [2] |
| --- | --- | --- | --- | --- | --- |
| CCOC(=O)Cc1cc(=O)n2nc(C(F)(F)F)c(-c3ccccc3)c2[nH]1 [RU-0171667, CCOC(=O)CC1=CC(=O)N2N=C(C(=C2N1)C1=CC=CC=C1)C(F)(F)F] | 163% | 148 ± 28.3% | 178 ± 17.6% | 84.5 ± 11.2% | 94.8 ± 4% |
| CC(SCc1cc(=O)n2nc(N)[nH]c2n1)c1ccccc1Cl (centres unmarked) [RU-0182827, CC(SCC1=CC(=O)N2N=C(N)NC2=N1)C1=C(Cl)C=CC=C1] | 11.2% | 13.3 ± 4.2% | 20 ± 4.4% | 6.6 ± 1.1% | 9.7 ± 3.1% |
| Cc1cc(C(C)C(=O)Nc2ccc(N3CCN(C)CC3)cn2)c(C)o1 (centres unmarked) [RU-0182922, CC(C(=O)NC1=NC=C(C=C1)N1CCN(C)CC1)C1=C(C)OC(C)=C1] | 174% | 139 ± 18.3% | 164 ± 13.6% | 96.9 ± 6.7% | 106 ± 5.2% |
| CC(CNC(=O)Nc1cccc(-c2noc(=O)[nH]2)c1)c1ccccc1 (centres unmarked) [RU-0182956, CC(CNC(=O)NC1=CC(=CC=C1)C1=NOC(=O)N1)C1=CC=CC=C1] | 48.1% | 66.7 ± 2.4% | 39 ± 3.5% | 38.3 ± 1.6% | 9.7 ± 1.2% |
| CSc1nc2nc3c(cc2c(=O)[nH]1)C(O)Oc1ccc(C)cc1-3 (centres unmarked) [RU-0183239, CSC1=NC2=C(C=C3C(O)OC4=C(C=C(C)C=C4)C3=N2)C(=O)N1] | 49.5% | 49.2 ± 4.2% | 33.7 ± 1.8% | 53.9 ± 4.3% | 12.9 ± 5.2% |
| O=C(NC[C@H]1C[C@H]2C=C[C@H]1C21CC1)c1cnc(N2CCOCC2)nc1 [RU-0184528, O=C(NC[C@H]1C[C@H]2C=C[C@H]1C21CC1)C1=CN=C(N=C1)N1CCOCC1] | 158% | 111 ± 2.1% | 134 ± 13.6% | 104 ± 21.9% | 136 ± 11.8% |
| Cc1ccc(-c2nc3nc(N)n(C)c(=O)c3nc2-c2ccc(C)cc2)cc1 [RU-0192424, CN1C(N)=NC2=NC(C3=CC=C(C)C=C3)=C(N=C2C1=O)C1=CC=C(C)C=C1] | 160% | 140 ± 10.1% | 169 ± 12.3% | 97 ± 3.1% | 120 ± 9.3% |
| COC(=O)Oc1sc2nc3ccccc3nc2c1N [RU-0193917, COC(=O)OC1=C(N)C2=C(S1)N=C1C=CC=CC1=N2] | 158% | 166 ± 15.7% | 184 ± 27% | 111 ± 4% | 179 ± 15% |
| Cc1nc2nc(-c3cccs3)nn2c(O)c1C1CCS(=O)(=O)C1 (centres unmarked) [RU-0194400, CC1=NC2=NC(=NN2C(O)=C1C1CCS(=O)(=O)C1)C1=CC=CS1] | 7.1% | 9.1 ± 3.9% | 15 ± 5.3% | -2.1 ± 2.6% | 2.5 ± 7% |
| CCN(CC)c1ccc2c(NC3CCCCC3)nc(=O)oc2c1 [RU-0196346, CCN(CC)C1=CC2=C(C=C1)C(NC1CCCCC1)=NC(=O)O2] | 183% | 161 ± 6.2% | 192 ± 12.4% | 110 ± 13% | 115 ± 9.5% |
| OCC(CNc1nc(N2CCCC2)nc(N2CCCC2)n1)Cc1ccco1 (centres unmarked) [RU-0198952, OCC(CNC1=NC(=NC(=N1)N1CCCC1)N1CCCC1)CC1=CC=CO1] | 170% | 123 ± 7.8% | 194 ± 15.6% | 171 ± 12.8% | 380 ± 28.2% |
| Cc1csc(/C(C#N)=C\c2ccc(C3CC3C)o2)n1 (centres unmarked) [RU-0200280, CC1CC1C1=CC=C(O1)\C=C(\C#N)C1=NC(C)=CS1] | 277% | 144 ± 5.5% | 248 ± 21.2% | 399 ± 31.8% | – |
| COc1ccc2c(C)cc(Nc3cc(F)ccc3C)nc2c1 [RU-0202188, COC1=CC2=C(C=C1)C(C)=CC(NC1=C(C)C=CC(F)=C1)=N2] | 159% | 128 ± 12.2% | 132 ± 17.8% | 206 ± 10.4% | 256 ± 16.6% |
| CC(NC(=O)c1cc(Cl)ccc1NS(C)(=O)=O)c1ccc2c(c1)OCO2 (centres unmarked) [RU-0202213, CC(NC(=O)C1=C(NS(C)(=O)=O)C=CC(Cl)=C1)C1=CC2=C(OCO2)C=C1] | 195% | 152 ± 9.2% | 181 ± 5.7% | 89.3 ± 18.6% | 119 ± 13.2% |
| CCOC(=O)N1C/C(=C/c2cccc(O)c2)C(=O)/C(=C/c2cccc(O)c2)C1 [RU-0202273, CCOC(=O)N1C\C(=C\C2=CC(O)=CC=C2)C(=O)\C(C1)=C\C1=CC(O)=CC=C1] | 154% | 113 ± 3.2% | 117 ± 11% | 84.5 ± 18.2% | 158 ± 19.3% |
| COc1ccc2c(c1)OCC(C(=O)C(C#N)c1nc3ccccc3o1)C2 (centres unmarked) [RU-0202553, COC1=CC2=C(CC(CO2)C(=O)C(C#N)C2=NC3=C(O2)C=CC=C3)C=C1] | 189% | 131 ± 13.6% | 249 ± 22.5% | 136 ± 12.3% | 402 ± 46.5% |
| CC(C)CCOc1ccc(C(=O)Nc2cc(Cl)ccc2C(N)=O)cc1 [RU-0202925, CC(C)CCOC1=CC=C(C=C1)C(=O)NC1=C(C=CC(Cl)=C1)C(N)=O] | 46.5% | 57.1 ± 7.4% | 60.8 ± 9.8% | 63.2 ± 8.6% | 61.8 ± 14.4% |
| CCOC(=O)c1nnc(NC(=O)c2cc(Cl)cc(Cl)c2)s1 [RU-0203287, CCOC(=O)C1=NN=C(NC(=O)C2=CC(Cl)=CC(Cl)=C2)S1] | 174% | 118 ± 12.5% | 138 ± 17% | 99 ± 5.3% | 111 ± 11.8% |
| CC(CCc1ccccc1)Nc1ncnc(-n2cccn2)c1N (centres unmarked) [RU-0203332, CC(CCC1=CC=CC=C1)NC1=C(N)C(=NC=N1)N1C=CC=N1] | 151% | 100 ± 2.9% | 135 ± 16.1% | 117 ± 5.3% | 182 ± 8.5% |
| Cc1nc(NS(=O)(=O)c2ccc(F)c(F)c2)n(-c2ccc(C#N)cc2)n1 [RU-0203361, CC1=NN(C(NS(=O)(=O)C2=CC(F)=C(F)C=C2)=N1)C1=CC=C(C=C1)C#N] | 152% | 121 ± 1.5% | 160 ± 15.7% | 119 ± 11.5% | 169 ± 13.4% |
| CC(OC(=O)CC(C)(C)C)c1nc2cc(Cl)ccc2n1C (centres unmarked) [RU-0203619, CC(OC(=O)CC(C)(C)C)C1=NC2=C(C=CC(Cl)=C2)N1C] | 153% | 95.6 ± 13.8% | 131 ± 11% | 75.6 ± 6.2% | 96.6 ± 5.5% |
| COCCOc1ccc(NS(=O)(=O)c2cn(C)c(Cl)n2)cn1 [RU-0203727, COCCOC1=NC=C(NS(=O)(=O)C2=CN(C)C(Cl)=N2)C=C1] | 277% | 168 ± 16.8% | 309 ± 6.8% | 330 ± 19.1% | 996 ± 23.7% |
| COc1ccc2c(CC(=O)Nc3nc(CN4CCCCC4)cs3)coc2c1 [RU-0204291, COC1=CC2=C(C=C1)C(CC(=O)NC1=NC(CN3CCCCC3)=CS1)=CO2] | 167% | 99.2 ± 12.7% | 142 ± 13% | 104 ± 2.6% | 135 ± 13.2% |
| CC(=O)N1N=C(c2c(-c3ccccc3)c3ccc(C)cc3[nH]c2=O)CC1c1ccco1 (centres unmarked) [RU-0204568, CC(=O)N1N=C(CC1C1=CC=CO1)C1=C(C2=CC=CC=C2)C2=C(NC1=O)C=C(C)C=C2] | 162% | 125 ± 9.5% | 198 ± 21% | 102 ± 12.9% | 116 ± 27.3% |
